Results from the CombiSolv-Exp solvation set (Vermeire and Green 2021).
Values belong to the compound of their own block, whether it stands above or below them.

Assay: solvent given as SMILES
[1] = in CCCCCCCCC=CCCCCCCCC(=O)OCC(COC(=O)CCCCCCCC=CCCCCCCCC)OC(=O)CCCCCCCC=CCCCCCCCC

solvation free energy, 298 K (in O): -6 kcal/mol
SMILES: CCOC(=O)CC(=O)OCC

solvation free energy, 298 K (in CC(C)CC(C)(C)C): -8.54 kcal/mol | solvation free energy, 298 K (in CCCCCC): -8.71 kcal/mol | solvation free energy, 298 K (in CCCCCCC): -8.75 kcal/mol | solvation free energy, 298 K (in CCCCCCCC): -8.73 kcal/mol | solvation free energy, 298 K (in CCCCCCCCCC): -8.76 kcal/mol | solvation free energy, 298 K (in O): -7.93 kcal/mol
SMILES: Oc1cccc2ccccc12

solvation free energy, 298 K (in O): -6.34 kcal/mol
SMILES: CC(=O)OCCOC(C)=O

solvation free energy, 298 K (in O): -6.09 kcal/mol
SMILES: CC(C)CC(=O)O

solvation free energy, 298 K (in C=CCCCCCCCCCCCCCC): -3.7 kcal/mol | solvation free energy, 298 K (in CC#N): -2.7 kcal/mol | solvation free energy, 298 K (in CN1CCCC1=O): -2.66 kcal/mol | solvation free energy, 298 K (in O): 2.88 kcal/mol
SMILES: CCCC(C)(C)C

solvation free energy, 298 K (in O): -4.43 kcal/mol
SMILES: CC(C)(C)C(=O)CC(=O)C(C)(C)C

solvation free energy, 298 K (in O): -6.44 kcal/mol
SMILES: COc1c(Cl)cc(Cl)c(OC)c1O

solvation free energy, 298 K (in O): -4.08 kcal/mol
SMILES: CC(C)C(=O)CC(=O)C(C)C

solvation free energy, 298 K (in COCCO): -5.72 kcal/mol | solvation free energy, 298 K (in CS(C)=O): -5.55 kcal/mol | solvation free energy, 298 K (in O): -0.67 kcal/mol
SMILES: Cc1ccc(C(C)C)cc1

solvation free energy, 298 K (in C=CCCCCCCCCCCCCCC): -2.97 kcal/mol | solvation free energy, 298 K (in O): 1.57 kcal/mol
SMILES: C=CC(C)(C)C

solvation free energy, 298 K (in O): -9.4 kcal/mol
SMILES: O=C(O)c1cc(-c2ccc(F)cc2F)ccc1O

solvation free energy, 298 K (in O): -4.56 kcal/mol
SMILES: O=C(CC(=O)C(F)(F)F)C(F)(F)F

solvation free energy, 298 K (in O): -11.6 kcal/mol
SMILES: O=C(c1ccc(Br)cc1)N(O)c1ccc(Cl)cc1

solvation free energy, 298 K (in O): -1.09 kcal/mol
SMILES: CCCCCCCCC=CCCCCCCCCCCCC(=O)OC

solvation free energy, 298 K (in O): -3.96 kcal/mol
SMILES: CC(=O)OCC=C(C)CCC=C(C)CCC=C(C)C

solvation free energy, 298 K (in O): -7.62 kcal/mol
SMILES: CC(=O)c1ccncc1

solvation free energy, 298 K (in C=CCCCCCCCCCCCCCC): -4.01 kcal/mol
SMILES: CCCC(C)CC (configuration not stated)

solvation free energy, 298 K (in O): -8.84 kcal/mol
SMILES: CC(=O)OCC(COC(C)=O)OC(C)=O

solvation free energy, 298 K (in O): -2.82 kcal/mol
SMILES: CCCCC[N+](=O)[O-]

solvation free energy, 298 K (in CCCCCCCC): -4.84 kcal/mol | solvation free energy, 298 K (in CCCCCCCCCC): -4.78 kcal/mol
SMILES: CC(C)CCCO

solvation free energy, 298 K (in ClCCCl): -5.27 kcal/mol | solvation free energy, 298 K (in O): -3.28 kcal/mol
SMILES: CCOC(C)OCC

Further lines, the compound ahead of its results:

SMILES: CC=C(C)C
solvation free energy, 298 K (in BrC(Br)C(Br)Br): -2.68 kcal/mol | solvation free energy, 298 K (in C1=Cc2ccccc2C1): -3.05 kcal/mol | solvation free energy, 298 K (in C=CCCCCCCCCCCCCCC): -2.97 kcal/mol | solvation free energy, 298 K (in CC1COC(=O)O1): -2.09 kcal/mol | solvation free energy, 298 K (in CC(=O)N(C)C): -2.58 kcal/mol | solvation free energy, 298 K (in CC(=O)c1ccccc1): -2.79 kcal/mol | solvation free energy, 298 K (in CC(C)(C)O): -3.22 kcal/mol | solvation free energy, 298 K (in CCCCC#N): -2.9 kcal/mol | solvation free energy, 298 K (in CCCCCC#N): -2.96 kcal/mol | solvation free energy, 298 K (in CCNC(C)=O): -2.69 kcal/mol | solvation free energy, 298 K (in CN1CCCC1=O): -2.51 kcal/mol | solvation free energy, 298 K (in CN(C)C=O): -2.56 kcal/mol | solvation free energy, 298 K (in CN(C)P(=O)(N(C)C)N(C)C): -2.61 kcal/mol | solvation free energy, 298 K (in CNC(C)=O): -2.54 kcal/mol | solvation free energy, 298 K (in CNC=O): -2.17 kcal/mol | solvation free energy, 298 K (in CS(C)=O): -1.97 kcal/mol | solvation free energy, 298 K (in Cc1cccc2ccccc12): -2.88 kcal/mol | solvation free energy, 298 K (in Cc1cccc(O)c1): -2.63 kcal/mol | solvation free energy, 298 K (in ClC(Cl)C(Cl)Cl): -3.16 kcal/mol | solvation free energy, 298 K (in Clc1cccc2ccccc12): -2.8 kcal/mol | solvation free energy, 298 K (in N#CCCCC#N): -1.67 kcal/mol | solvation free energy, 298 K (in N#CCCCCC#N): -1.98 kcal/mol | solvation free energy, 298 K (in N#CCc1ccccc1): -2.48 kcal/mol | solvation free energy, 298 K (in N#Cc1ccccc1): -2.89 kcal/mol | solvation free energy, 298 K (in NCc1ccccc1): -2.67 kcal/mol | solvation free energy, 298 K (in Nc1ccccc1): -2.3 kcal/mol | solvation free energy, 298 K (in O): 1.37 kcal/mol | solvation free energy, 298 K (in O=C1CCCCC1): -3.09 kcal/mol | solvation free energy, 298 K (in O=C(O)C(Cl)Cl): -2.63 kcal/mol | solvation free energy, 298 K (in OCCO): -0.76 kcal/mol | solvation free energy, 298 K (in OCc1ccccc1): -2.44 kcal/mol

SMILES: Clc1ccc(C(c2ccc(Cl)cc2)C(Cl)(Cl)Cl)cc1
solvation free energy, 298 K [1]: -14.9 kcal/mol | solvation free energy, 298 K (in CCCCCCCCO): -13.8 kcal/mol | solvation free energy, 298 K (in O): -4.61 kcal/mol

SMILES: CCCCN(CC)C(=O)SCCC
solvation free energy, 298 K (in O): -3.64 kcal/mol

SMILES: O=c1[nH]cc(F)c(=O)[nH]1
solvation free energy, 298 K (in O): -16.9 kcal/mol

SMILES: C=CCl
solvation free energy, 298 K (in O): -0.59 kcal/mol

SMILES: CCCN(CCC)c1c([N+](=O)[O-])cc(C(F)(F)F)cc1[N+](=O)[O-]
solvation free energy, 298 K (in O): -3.25 kcal/mol

SMILES: COC(=O)c1cc([N+](=O)[O-])cc([N+](=O)[O-])c1
solvation free energy, 298 K (in CN(C)C=O): -13.3 kcal/mol | solvation free energy, 298 K (in O): -8.92 kcal/mol

SMILES: CN1CCCC1=O
solvation free energy, 298 K (in C1CCCCC1): -5.73 kcal/mol | solvation free energy, 298 K (in CC(C)CC(C)(C)C): -5.93 kcal/mol | solvation free energy, 298 K (in O): -7.83 kcal/mol | solvation free energy, 298 K (in c1ccccc1): -6.83 kcal/mol

SMILES: CCCCCCCCCCCCCCCCCCCCCC
solvation free energy, 298 K (in CC(=O)N(C)C): -15 kcal/mol | solvation free energy, 298 K (in CC(C)(C)O): -13.3 kcal/mol | solvation free energy, 298 K (in CCC(C)=O): -13.6 kcal/mol | solvation free energy, 298 K [1]: -13.4 kcal/mol | solvation free energy, 298 K (in CCCCOC(C)=O): -14.1 kcal/mol | solvation free energy, 298 K (in CCOC(C)=O): -13.7 kcal/mol | solvation free energy, 298 K (in CN(C)C=O): -15 kcal/mol | solvation free energy, 298 K (in COC(C)(C)C): -14.9 kcal/mol | solvation free energy, 298 K (in COC(C)=O): -13 kcal/mol | solvation free energy, 298 K (in O): 4.87 kcal/mol

SMILES: Clc1ccc2c(c1)Oc1ccccc1O2
solvation free energy, 298 K (in O): -3.1 kcal/mol

SMILES: ClC(Cl)(Cl)C(Cl)(Cl)Cl
solvation free energy, 298 K [1]: -5.42 kcal/mol | solvation free energy, 298 K (in CCCCCCCCO): -6.1 kcal/mol

SMILES: Clc1ccccn1
solvation free energy, 298 K (in O): -4.39 kcal/mol

SMILES: CCc1cccc(CC)c1N(COC)C(=O)CCl
solvation free energy, 298 K (in O): -8.21 kcal/mol

SMILES: Clc1cc(Cl)c(Cl)cc1Cl
solvation free energy, 298 K (in CCCCCCCCO): -7.67 kcal/mol | solvation free energy, 298 K (in O): -1.34 kcal/mol

SMILES: CC1CCCC(C)(C)C1 (configuration not stated)
solvation free energy, 298 K (in O): 2.23 kcal/mol

SMILES: CC(C)(c1ccc(O)cc1)c1ccc(O)cc1
solvation free energy, 298 K (in CCCCCCC): -13 kcal/mol | solvation free energy, 298 K (in CCCCCCCC): -12.9 kcal/mol | solvation free energy, 298 K (in CCCCCCCCCC): -12.8 kcal/mol | solvation free energy, 298 K (in Cc1ccc(C)cc1): -15.5 kcal/mol | solvation free energy, 298 K (in Cc1cccc(C)c1): -15.5 kcal/mol | solvation free energy, 298 K (in Cc1ccccc1C): -15.6 kcal/mol | solvation free energy, 298 K (in O): -14.4 kcal/mol

SMILES: CN(C)CCC=C1c2ccccc2CCc2ccccc21
solvation free energy, 298 K (in O): -7.43 kcal/mol

SMILES: CC=CC=O
solvation free energy, 298 K (in O=CN1CCOCC1): -4.69 kcal/mol

SMILES: CCOCCO
solvation free energy, 298 K (in CCCCCC): -4.01 kcal/mol | solvation free energy, 298 K (in CCCCCCC): -3.85 kcal/mol | solvation free energy, 298 K (in COC(C)=O): -5.89 kcal/mol | solvation free energy, 298 K (in ClC(Cl)(Cl)Cl): -4.87 kcal/mol | solvation free energy, 298 K (in ClCCl): -6.06 kcal/mol | solvation free energy, 298 K (in O): -6.7 kcal/mol

SMILES: Cc1ccc([N+](=O)[O-])cc1
solvation free energy, 298 K (in O): -4.96 kcal/mol
